Measurements as given in the OligoGym collection.
Bases are written 5' to 3'; sugars and linkages follow in the same order, as letters with counts (s phosphorothioate, o phosphodiester; PS: all linkages phosphorothioate). The collection does not say whether C is 5-methylated. l = locked nucleic acid (LNA); d = 2'-deoxy (DNA)

The sequences below were run against Tau (assay: rat primary cortical neurons, FLIPR, 25 uM ASO).

| Sequence | calcium oscillation score |
| --- | --- |
| CAGATTCCCCAACTCACA (sugars l2 d14 l2, PS) | 71.5 % of control |
| GTCTTTATTAACACTCC (sugars l4 d11 l2, PS) | 63.3 % of control |
| CTTTATTTCCAAATTCAC (sugars l3 d11 l1 d1 l2, PS) | 132 % of control |
| CATCAGCCTTCATCACA (sugars l4 d11 l2, PS) | 91.8 % of control |
| CTTTATTTCCAAATTCAC (sugars l5 d9 l4, PS) | 104 % of control |
| CTTTATTTCCAAATTCACTT (sugars l5 d11 l4, PS) | 143 % of control |
| ATTAATTATCTGCACCT (sugars l4 d10 l3, PS) | 24.7 % of control |
| AATTTACACCCAAACCTAA (sugars l4 d11 l4, PS) | 106 % of control |
| TTCTCTCTTAACTTTATTTT (sugars l4 d12 l4, PS) | 93 % of control |
| TTCTGAATTCCTATCAT (sugars l4 d10 l3, PS) | 40.1 % of control |
| GCTAAGGCAAGGCCTA (sugars l3 d10 l3, PS) | 129 % of control |
| GAGGCACAAGTCCTTA (sugars l3 d10 l3, PS) | 76.2 % of control |
| TCAGCTAAGACCCTCAGGTT (sugars l3 d14 l3, PS) | 33 % of control |
| CTACTTTATTCCCTTAACAA (sugars l2 d15 l3, PS) | 86.8 % of control |
| CTTTATTTCCAAATTCACT (sugars l5 d9 l5, PS) | 127 % of control |
| TATTTCCAAATTCACTTTTA (sugars lldlldddddddddldldll, PS) | 110 % of control |
| CCCGAGCCAAAGCCGA (sugars l3 d10 l3, PS) | 50.6 % of control |
| CTCCTAATTTTGCACT (sugars l4 d10 l2, PS) | 44.2 % of control |
| CCTCTGTCTTAACTTTT (sugars l3 d10 l4, PS) | 97 % of control |
| ACTCTTAGCATCCACTT (sugars l4 d11 l2, PS) | 40.6 % of control |
| TCAAAATCCTTAATTTAACC (sugars l4 d12 l4, PS) | 70.7 % of control |
| TTATTTCCAAATTCACTTTT (sugars llldlddddddddddldlll, PS) | 116 % of control |
| TCCATTTTCTGACTCTA (sugars l3 d12 l2, PS) | 40.4 % of control |
| TCTTTGAACACCCCATCT (sugars l2 d14 l2, PS) | 41 % of control |
| CCCCACTTTTAATTAAA (sugars l4 d10 l3, PS) | 99.7 % of control |
| AATTTAGTCACCATCAC (sugars l4 d9 l4, PS) | 79.1 % of control |

| Sequence | calcium oscillation score |
| --- | --- |
| TCCATTAGTCTCTTCA (sugars l3 d11 l2, PS) | 65.1 % of control |
| CTTTTGAACCCATTCCA (sugars l3 d12 l2, PS) | 82.2 % of control |
| GCTGGGTGGTGTCTTTGGAG (sugars l3 d14 l3, PS) | 0 % of control |
| CTTTAATTTAATCACTCA (sugars l4 d10 l4, PS) | 76.6 % of control |
| CTCCTATATTCTCAGT (sugars l3 d9 l4, PS) | 73.7 % of control |
| ATACTCAAATTCTTCCT (sugars l3 d10 l4, PS) | 84.8 % of control |
| TTTAGTTTTCCCACCCAA (sugars l2 d13 l3, PS) | 69.4 % of control |
| CTCAAACTTAAATTTATTTT (sugars l4 d12 l4, PS) | 90.7 % of control |
| TATTTCCAAATTCACTTTTA (sugars lldlldddddddddlddlll, PS) | 76.7 % of control |
| TTAATTTCACCCTCAG (sugars l3 d10 l3, PS) | 41.7 % of control |
| TTCTTCCATCCTAAGTCA (sugars l3 d13 l2, PS) | 51.7 % of control |
| CGTTGCTAAGATCCAG (sugars l3 d10 l3, PS) | 9.04 % of control |
| CATGTCGATGCTGC (sugars l3 d8 l3, PS) | 30.5 % of control |
| GGCGACTTGTACAC (sugars l3 d8 l3, PS) | 117 % of control |
| CCTTACCACTTTCAGG (sugars l3 d10 l3, PS) | 111 % of control |
| TCTCAAGTCTTATTCTC (sugars l3 d11 l3, PS) | 38.6 % of control |
| CTTTATTTCCAAATTCACTT (sugars l4 d11 l5, PS) | 136 % of control |
| GATCTTAGGCTGGCC (sugars l3 d9 l3, PS) | 8.13 % of control |
| GTTGCCTAATGAGCCACACT (sugars l3 d14 l3, PS) | 59.8 % of control |
| ACTCAACATTACCCTTAAA (sugars l4 d11 l4, PS) | 82.4 % of control |
| GTAACCAACTTTCATCT (sugars l2 d12 l3, PS) | 78.7 % of control |
| ATTTAATTTATTTTTTACT (sugars l4 d11 l4, PS) | 60.1 % of control |
| CTTGGCTTTGGCGTT (sugars l3 d9 l3, PS) | 82.4 % of control |
| CCAAATTCCTCATAATCCAA (sugars l2 d15 l3, PS) | 73.4 % of control |
| TCACAAACCCTGCTTGGCCA (sugars l3 d14 l3, PS) | 27.6 % of control |
| AACTTTTACTCTGACTA (sugars l4 d9 l4, PS) | 51.9 % of control |

| Sequence | calcium oscillation score |
| --- | --- |
| TGAACAGGAGAGCCATTTCC (sugars l3 d14 l3, PS) | 7.14 % of control |
| ATTCCCAAATTCCTCATAAT (sugars l4 d14 l2, PS) | 58.6 % of control |
| GCAGACACCTCGTCAGCTAG (sugars l3 d14 l3, PS) | 59.6 % of control |
| GAGGAACGTGTGGATG (sugars l3 d10 l3, PS) | 3.7 % of control |
| CCCTTGATCATATTTGTGGC (sugars l3 d14 l3, PS) | 35.7 % of control |
| GGTTAGCCCTAAAGTCCCAG (sugars l3 d14 l3, PS) | 37.3 % of control |
| AATTTCTCTAATTGTCC (sugars l4 d9 l4, PS) | 69 % of control |
| GATACATGCGTCCTTT (sugars l3 d10 l3, PS) | 110 % of control |
| AGATATTCATTCCCTCA (sugars l3 d12 l2, PS) | 53 % of control |
| CAACATTTGCACTCTCT (sugars l2 d11 l4, PS) | 53 % of control |
| CTAATCCTGTGCTTC (sugars l3 d9 l3, PS) | 73.1 % of control |
| TTGAAGTCCCGAGCC (sugars l3 d9 l3, PS) | 0 % of control |
| TCCCCCAAAATATCTCA (sugars l2 d12 l3, PS) | 87.1 % of control |
| ATTTCCAAATTCACTTTTAC (sugars ldlllddddddddddlldll, PS) | 143 % of control |
| GGCGGTGACTGCGA (sugars l3 d8 l3, PS) | 41.7 % of control |
| GTCAACTGGTTTGT (sugars l3 d8 l3, PS) | 89.4 % of control |
| ATTTAGTTACTCATCC (sugars l4 d8 l4, PS) | 72.6 % of control |
| TTATTAATTCATAAATGACT (sugars l3 d14 l3, PS) | 42.3 % of control |
| AGCGTGATCTTCCATC (sugars l3 d10 l3, PS) | 101 % of control |
| CCTTAATTTCACCCTC (sugars l3 d10 l3, PS) | 132 % of control |
| TTCCCAAATTCCTCATAATC (sugars l3 d15 l2, PS) | 69.1 % of control |
| CTTCATTCTTGCCCAA (sugars l3 d10 l3, PS) | 33.3 % of control |
| TCGTCAGCTAGCGTGG (sugars l3 d10 l3, PS) | 55.2 % of control |
| ATTCTCAGCACACCATT (sugars l4 d11 l2, PS) | 41.3 % of control |
| AGCAGGTTAAGTGATTAACC (sugars l3 d14 l3, PS) | 16 % of control |
| TGCAAACACTCCCTCT (sugars l2 d10 l4, PS) | 35.4 % of control |
